Literature values, collected in patent publication US7429577B2, “Augmentation of atypical antipsychotic agent pharmacotherapy with chromium supplementation” (priority 2002, dated 2008).

Assays:
[1] = humans, in particular subjects with plasma cholesterol above the 200 μg/ml level
[2] = healthy volunteers, 200 μg chromium picolinate per day
[3] = obese Caucasian patients with type-II diabetes receiving sulphonylurea and metformin
[4] = olanzapine treatment of patients

| Compound | blood lipids [1] | LDL cholesterol decreased by [2] [%] | fasting blood glucose decreased by [2] [%] | glycosylated hemoglobin decreased by [2] [%] | total cholesterol decreased by [2] [%] | fasting insulin levels and glucose control [3] | levels of insulin, leptin, blood lipids; insulin resistance [4] |
| --- | --- | --- | --- | --- | --- | --- | --- |
| chromium picolinate | efficacious in lowering blood lipids | 11 | 24 | 19 | 13 | lowering fasting insulin levels without impairing glucose control |  |
| Cc1cc2c(s1)Nc1ccccc1N=C2N1CCN(C)CC1 [olanzapine] |  |  |  |  |  |  | elevated levels of insulin, leptin, and blood lipids, as well as insulin resistance |
